Each molecule was assayed on TNF-α production in THP-1 cells (assay: Test 1: Inhibition of TNF-α production in THP-1 cells). Settings: Homo sapiens; 100 nM test compound; LPS (10 μg/mL) stimulated THP-1 cells, 20 hr; TNF-α in supernatant vs 0.1% DMSO control.
Format: cell-based
Description: Test 1: Inhibition of TNF-α Production in THP-1 Cells
THP-1 cells, a human monocytic cell line, were maintained in RPMI 1640 (Sigma R8758) supplemented with penicillin (50 U/mL), streptomycin (50 μg/mL) and 10% fetal bovine serum (Moregate BioTech.) at 37° C., 5% CO2 in a humidified incubator. Initial stock solutions of test compounds were made in DMSO. All cells, reagents and test compounds were diluted into culture media. THP-1 cells (1×10^5 cells/well final) and lipopolysaccharide (LPS; 10 μg/mL final; Sigma L-4005, from E. coli serotype 0.55:B5) were added to 96 well polypropylene culture plates (Sumilon, MS-8196F5; sterile) containing test compound or 0.1% DMSO vehicle. The cell mixture was incubated for 20 hr in a humidified incubator at 37° C., 5% CO2. The culture supernatants were harvested and TNF-α levels from LPS stimulated cells in the presence of 100 nM test compound was calculated compared with control cells stimulated in the presence of 0.1% DMSO.

Row | SMILES | inhibition at 0.1 µM [%]
1 | O=C(Nc1cc(C(=O)NC2CC2)ccc1Cl)c1ccc(=O)n(-c2c(Cl)cccc2Cl)c1 [Example 1, N-{2-chloro-5-[(cyclopropylamino)carbonyl]phenyl}-1-(2,6-dichlorophenyl)-6-oxo-1,6-dihydro-3-pyridinecarboxamide] | 77
2 | CONC(=O)c1ccc(Cl)c(NC(=O)c2ccc(=O)n(-c3c(Cl)cccc3Cl)c2)c1 [Example 2, N-{2-Chloro-5-[(methoxyamino)carbonyl]phenyl}-1-(2,6-dichlorophenyl)-6-oxo-1,6-dihydro-3-pyridinecarboxamide] | 84
3 | O=C(Nc1ccon1)c1ccc(Cl)c(NC(=O)c2ccc(=O)n(-c3c(Cl)cccc3Cl)c2)c1 [Example 3, N-{2-Chloro-5-[(isoxazol-3-ylamino)carbonyl]phenyl}-1-(2,6-dichlorophenyl)-6-oxo-1,6-dihydro-3-pyridinecarboxamide] | 94
4 | Cn1ccc(NC(=O)c2ccc(Cl)c(NC(=O)c3ccc(=O)n(-c4c(Cl)cccc4Cl)c3)c2)n1 [Example 5, N-{2-Chloro-5-[(1-methyl-1H-pyrazol-3-ylamino)carbonyl]phenyl}-1-(2,6-dichlorophenyl)-6-oxo-1,6-dihydro-3-pyridinecarboxamide] | 75
5 | Cn1nccc1NC(=O)c1ccc(Cl)c(NC(=O)c2ccc(=O)n(-c3c(Cl)cccc3Cl)c2)c1 [Example 6, N-{2-Chloro-5-[(1-methyl-1H-pyrazol-5-ylamino)carbonyl]phenyl}-1-(2,6-dichlorophenyl)-6-oxo-1,6-dihydro-3-pyridinecarboxamide] | 82
6 | O=C(Nc1cc(C(=O)NC2CC2)ccc1Br)c1ccc(=O)n(-c2c(F)cccc2F)c1 [Example 15, N-{2-Bromo-5-[(cyclopropylamino)carbonyl]phenyl}-1-(2,6-difluorophenyl)-6-oxo-1,6-dihydro-3-pyridinecarboxamide] | 69
7 | O=C(Nc1cc(C(=O)NC2CC2)ccc1Cl)c1ccc(=O)n(-c2c(F)cccc2Cl)c1 [Example 16, N-{2-Chloro-5-[(cyclopropylamino)carbonyl]phenyl}-1-(2-chloro-6-fluorophenyl)-6-oxo-1,6-dihydro-3-pyridinecarboxamide] | 72
8 | O=C(Nc1cc(C(=O)NC2CC2)ccc1Cl)c1ccc(=O)n(-c2cccc(F)c2F)c1 [Example 17, N-{2-Chloro-5-[(cyclopropylamino)carbonyl]phenyl}-1-(2,3-difluorophenyl)-6-oxo-1,6-dihydro-3-pyridinecarboxamide] | 75
9 | Cc1ccc(C(=O)NC2CC2)cc1NC(=O)c1ccc(=O)n(-c2c(Cl)cccc2Cl)c1 [Example 18, N-{5-[(cyclopropylamino)carbonyl]-2-methylphenyl}-1-(2,6-dichlorophenyl)-6-oxo-1,6-dihydro-3-pyridinecarboxamide] | 78
10 | Cc1ccc(C(=O)NC2CC2)cc1NC(=O)c1ccc(=O)n(C(C)(C)C)c1 [Example 20, N-{5-[(cyclopropylamino)carbonyl]-2-methylphenyl}-1-tert-butyl-6-oxo-1,6-dihydro-3-pyridinecarboxamide] | 85
11 | Cc1ccc(C(=O)NC2CC2)cc1NC(=O)c1ccc(=O)n(-c2c(F)cccc2F)c1 [Example 22, N-{5-[(Cyclopropylamino)carbonyl]-2-methylphenyl}-1-(2,6-difluorophenyl)-6-oxo-1,6-dihydro-3-pyridinecarboxamide] | 97
12 | Cc1ccc(C(=O)NC2CC2)cc1NC(=O)c1ccc(=O)n(C(C)c2ccccc2)c1 (centres unmarked) [Example 24, N-{5-[(Cyclopropylamino)carbonyl]-2-methylphenyl}-1-(1-phenylethyl)-6-oxo-1,6-dihydro-3-pyridinecarboxamide] | 83
13 | Cc1ccc(NC(=O)C2CC2)cc1NC(=O)c1ccc(=O)n(-c2c(Cl)cccc2Cl)c1 [Example 25, N-{5-[(cyclopropylcarbonyl)amino]-2-methylphenyl}-1-(2,6-dichlorophenyl)-6-oxo-1,6-dihydro-3-pyridinecarboxamide] | 70
14 | Cc1ccc(-n2nc(C(C)(C)C)cc2NC(=O)Nc2ccc(C)c(NC(=O)c3ccc(=O)n(-c4c(Cl)cccc4Cl)c3)c2)cc1 [Example 26, N-[5-[({[3-tert-butyl-1-(4-methylphenyl)-1H-pyrazol-5-yl]amino]carbonyl)amino]-2-methylphenyl}-1-(2,6-dichlorophenyl)-6-oxo-1,6-dihydro-3-pyridinecarboxamide] | 68
